This test concerns CD8F1 mice, subcutaneous mammary adenocarcinoma, T/C%. As to the kind of experiment: NCI In Vivo Anticancer Drug Screen. Data for tumor model Mammary Adenocarcinoma CD8F1 (subcutaneous) in CD8F1. The following applies: higher = larger tumour. A digest of the protocol:
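Tumor-bearing mice, transplantable model; readout survival or tumor size; value = treated (T) / vehicle control (C).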

Where [1] appears, read: endpoint: median tumor weight (est.), dose: 6.25 mg/kg/injection, schedule: Q07DX005 (ip), vehicle: saline.

Several values for one entry are separate records, joined by “and”; a condition that tells them apart may be missing. Identical values can stand only once. Results filed as inconclusive are left out.

Regarding `CC(=O)O[C@@H]1[C@@H](O)C2=C3[C@]4(C)[C@@H]1C(C)(C)C(=O)C[C@@H]4[C@]3(O)[C@H](OC(C)=O)[C@@]1(C[C@@H]1C)C2=O`, the T/C is, setting by setting: (endpoint: median tumor weight (est.), dose: 6.25 mg/kg/injection, schedule: Q07DX005 (ip), vehicle: distilled water + Tween-80) 98 % of control; (endpoint: median tumor weight (est.), dose: 6.25 mg/kg/injection, schedule: Q07DX005 (ip), vehicle: saline with Tween-80) 112 % of control; (endpoint: median tumor weight (est.), dose: 12.5 mg/kg/injection, schedule: Q07DX005 (ip), vehicle: distilled water + Tween-80) 151 % of control; (endpoint: median tumor weight (est.), dose: 12.5 mg/kg/injection, schedule: Q07DX005 (ip), vehicle: saline with Tween-80) 117 % of control; (endpoint: median tumor weight (est.), dose: 25.0 mg/kg/injection, schedule: Q07DX005 (ip), vehicle: distilled water + Tween-80) 87 % of control; (endpoint: median tumor weight (est.), dose: 50.0 mg/kg/injection, schedule: Q07DX005 (ip), vehicle: distilled water + Tween-80) 94 % of control. Also, the T/C (endpoint: median tumor weight (est.), dose: 50.0 mg/kg/injection, schedule: Q07DX005 (ip), vehicle: saline with Tween-80) was 72 % of control.

For the compound `CC1(C)N=C(N)N=C(N)N1c1ccc(F)c(C(F)(F)F)c1`, the T/C was 97 % of control under setting [1] and 61 % of control (endpoint: median tumor weight (est.), dose: 100.0 mg/kg/injection, schedule: Q07DX005 (ip), vehicle: saline).

Take `O=C(O[Si](Cc1ccccc1)(Cc1ccccc1)Cc1ccccc1)N(CCCl)CCCl`: the T/C (endpoint: median tumor weight change, dose: 62.0 mg/kg/injection, schedule: Q01DX001 (ip), vehicle: saline with Tween-80) is 159 % of control; the T/C (endpoint: median tumor weight change, dose: 62.5 mg/kg/injection, schedule: Q01DX001 (ip), vehicle: saline with Tween-80) is 98 % of control and 109 % of control.

Turning to `O=c1n(CC2CO2)c(=O)n(CC2CO2)n1CC1CO1` (configuration not stated), the T/C (endpoint: median tumor weight change, dose: 62.5 mg/kg/injection, schedule: Q01DX001 (ip), vehicle: saline) was 29 % of control.

For the compound `NC(Cn1ccc(=O)c(O)c1)C(=O)O` (configuration not stated), the T/C was 82 % of control (endpoint: median tumor weight change, dose: 100.0 mg/kg/injection, schedule: Q01DX001 (ip), vehicle: saline); 69 % of control (endpoint: median tumor weight change, dose: 200.0 mg/kg/injection, schedule: Q01DX001 (ip), vehicle: saline); 52 % of control (endpoint: median tumor weight change, dose: 400.0 mg/kg/injection, schedule: Q01DX001 (ip), vehicle: saline); 72 % of control (endpoint: median tumor weight change, dose: 1600.0 mg/kg/injection, schedule: Q01DX001 (ip), vehicle: saline).

Take `O=C(O)CCCc1ccc(N(CCCl)CCCl)cc1`: the T/C by setting is: (endpoint: median tumor weight (est.), dose: 2.0 mg/kg/injection, schedule: Q07DX005 (ip), vehicle: saline) 234 % of control and 83 % of control; (endpoint: median tumor weight (est.), dose: 4.0 mg/kg/injection, schedule: Q07DX005 (ip), vehicle: saline with Tween-80) 77 % of control; (endpoint: median tumor weight (est.), dose: 7.5 mg/kg/injection, schedule: Q07DX005 (ip), vehicle: Klucel (hydroxypropylcellulose) (HPC)) 88 % of control; (endpoint: median tumor weight (est.), dose: 8.0 mg/kg/injection, schedule: Q07DX005 (ip), vehicle: saline with Tween-80) 46 % of control; (endpoint: median tumor weight (est.), dose: 15.0 mg/kg/injection, schedule: Q07DX005 (ip), vehicle: Klucel (hydroxypropylcellulose) (HPC)) 26 % of control; (endpoint: median tumor weight (est.), dose: 16.0 mg/kg/injection, schedule: Q07DX005 (ip), vehicle: saline with Tween-80) 43 % of control. Moreover, the T/C runs as follows: (endpoint: median tumor weight (est.), dose: 30.0 mg/kg/injection, schedule: Q07DX005 (ip), vehicle: Klucel (hydroxypropylcellulose) (HPC)) 22 % of control; (endpoint: median tumor weight (est.), dose: 32.0 mg/kg/injection, schedule: Q07DX005 (ip), vehicle: saline with Tween-80) 16 % of control; (endpoint: median tumor weight (est.), dose: 32.0 mg/kg/injection, schedule: Q07DX005 (ip), vehicle: saline) 3 % of control and 14 % of control; (endpoint: median tumor weight change, dose: 16.0 mg/kg/injection, schedule: Q01DX001 (ip), vehicle: saline with Tween-80) 57 % of control; (endpoint: median tumor weight change, dose: 32.0 mg/kg/injection, schedule: Q01DX001 (ip), vehicle: saline with Tween-80) 62 % of control; (endpoint: median tumor weight change, dose: 64.0 mg/kg/injection, schedule: Q01DX001 (ip), vehicle: saline with Tween-80) 38 % of control.

On to `COC(C(=O)C(O)C(C)O)C1CC2C=C3C=C(OC4CC(OC5CC(O)C(OC)C(C)O5)C(OC(C)=O)C(C)O4)C(C)C(=O)C3=C(O)C2=C(O)C1OC1CC(OC2CC(OC3CC(C)(O)C(O)C(C)O3)C(O)C(C)O2)C(O)C(C)O1` (configuration not stated), for which the T/C is 73 % of control (endpoint: mean tumor weight, dose: 1.0 mg/kg/injection, schedule: Q07DX005 (ip), vehicle: saline); 64 % of control (endpoint: mean tumor weight, dose: 2.0 mg/kg/injection, schedule: Q07DX005 (ip), vehicle: saline); 58 % of control (endpoint: median tumor weight (est.), dose: 0.5 mg/kg/injection, schedule: Q07DX005 (ip), vehicle: saline with Tween-80); 78 % of control (endpoint: median tumor weight (est.), dose: 1.0 mg/kg/injection, schedule: Q07DX005 (ip), vehicle: saline with Tween-80); 89 % of control (endpoint: median tumor weight (est.), dose: 2.0 mg/kg/injection, schedule: Q07DX005 (ip), vehicle: saline with Tween-80).

As to `CC1=NNC(=O)C1CCO` (configuration not stated), the T/C by setting is: (endpoint: median tumor weight change, dose: 450.0 mg/kg/injection, schedule: Q01DX001 (ip), vehicle: Klucel (hydroxypropylcellulose) (HPC)) 102 % of control; (endpoint: median tumor weight change, dose: 900.0 mg/kg/injection, schedule: Q01DX001 (ip), vehicle: Klucel (hydroxypropylcellulose) (HPC)) 157 % of control; (endpoint: median tumor weight change, dose: 1800.0 mg/kg/injection, schedule: Q01DX001 (ip), vehicle: Klucel (hydroxypropylcellulose) (HPC)) 189 % of control; (endpoint: median tumor weight change, dose: 3600.0 mg/kg/injection, schedule: Q01DX001 (ip), vehicle: Klucel (hydroxypropylcellulose) (HPC)) 80 % of control.

Consider `ClCCCN1CCCCC1CCl` (configuration not stated), for which the T/C runs as follows: (endpoint: median tumor weight (est.), dose: 1.56 mg/kg/injection, schedule: Q07DX005 (ip), vehicle: saline) 73 % of control; (endpoint: median tumor weight (est.), dose: 3.12 mg/kg/injection, schedule: Q07DX005 (ip), vehicle: saline) 123 % of control and 105 % of control; under setting [1], 71 % of control and 78 % of control; (endpoint: median tumor weight (est.), dose: 25.0 mg/kg/injection, schedule: Q07DX005 (ip), vehicle: saline) 53 % of control; (endpoint: median tumor weight (est.), dose: 50.0 mg/kg/injection, schedule: Q07DX005 (ip), vehicle: saline) 3 % of control.

Values taken from PubChem BioAssay AID220 (DTP/NCI, 2004).
